This is an account of results in patent US11578084B2, “Condensed ring compounds having dopamine D3 receptor antagonistic effect” (Shionogi & Co., Ltd., priority 2018, dated 2023).

Series [1] has as its target human MDR1-expressing cells (Homo sapiens (Human), UniProt P08183). Kind of series: P-gp substrate test (Transwell, MDR1-expressing cells vs parent cells). Type of series: in vitro ADME. Conditions: efflux ratio of MDR1-expressing cells compared with parent cells. The procedure:
Test Example 14: P-Gp Substrate Test The compound of the present invention was added to one side of Transwell (registered trademark, CORNING) where human MDR1-expressing cells or parent cells have been monolayer-cultured. The cells were reacted for a constant time. The membrane permeability coefficients from the apical side toward the basolateral side (A→B) and from the basolateral side toward the apical side (B→A) were calculated for the MDR1-expressing cells or the parent cells, and the efflux ratio (ER; ratio of the membrane permeability coefficients of B→A and A→B) values of the MDR1-expressing cells and the parent cells were calculated. The efflux ratio (ER values) of the MDR1-expressing cells and the parent cells were compared to confirm whether or not the compound of the present invention would be a P-gp substrate.

Series [2] concerns the target human recombinant dopamine D3 receptor (Homo sapiens (Human), UniProt P35462). Nature of the series: Test of binding inhibition for dopamine D3 receptor ([3H]-Methylspiperone SPA). Conditions: Jump-In HEK cell membranes, 2 nM [3H]-Methylspiperone, 120 min at 25° C.; read-out: hD3_Ki. A digest of the protocol: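 SPA radioligand binding on Jump-In HEK membranes expressing human D3 receptor (4 µg/well) with 2 nM [3H]-methylspiperone (final), incubated 120 min at 25 °C. Non-specific binding defined with 10 µM butaclamol. Percent inhibition computed against total and non-specific binding; Ki from dose-response curves.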

The target of a further series is hERG channel (IKr) (Homo sapiens (Human), UniProt Q12809). Nature of the series: hERG test (whole cell patch clamp, IKr). It is filed as cell-based. Conditions: human, CHO cells expressing hERG channel, pH 7.4, 3 μM, tail peak current. The source says:
Test Example 10: hERG Test
For the purpose of assessing risk of an electrocardiogram QT interval prolongation of the compound of the present invention, effects of the compound of the present invention on delayed rectifier K+ current (IKr), which plays an important role in the ventricular repolarization process, was studied using CHO cells expressing human ether-a-go-go related gene (hERG) channel.
After a cell was retained at a membrane potential of −80 mV by whole cell patch clamp method using an automated patch clamp system (QPatch; Sophion Bioscience A/S) and gave a leak potential of −50 mV, IKr induced by depolarization pulse stimulation at +20 mV for 2 seconds and, further, repolarization pulse stimulation at −50 mV for 2 seconds, was recorded. After the generated current was stabilized, extracellular solution (NaCl: 145 mmol/L, KCl: 4 mmol/L, CaCl2): 2 mmol/L, MgCl2: 1 mmol/L, glucose: 10 mmol/L, HEPES (4-(2-hydroxyethyl)-1-piperazineethanesulfonic acid): 10 mmol/L, pH=7.4), in which the compound of the present invention had been dissolved at an objective concentration in the extracellular solution, was applied to the cell at room temperature for 7 minutes or more. From the recording IKr, an absolute value of the tail peak current was measured based on the current value at the resting membrane potential using analysis software (QPatch Assay software; Sophion Bioscience A/S). Further, the % inhibition of tail peak current for the compound of the present invention relative to the tail peak current after application of the solution (0.1% dimethyl sulfoxide solution) was calculated to assess influence of the compound of the present invention on IKr.
For orientation: Block of hERG is tested as a sign of cardiac risk.

In series [3] the target is human recombinant dopamine D2 receptor (Homo sapiens (Human), UniProt P14416). Kind of series: Test of binding inhibition for dopamine D2 receptor ([3H]-Methylspiperone SPA). Conditions: Jump-In HEK cell membranes, read-out: hD2_Ki. A digest of the protocol:
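Incubation was 120 min at 25° C. with human recombinant D2 membranes from Jump-In HEK cells (2 μg/well), WGA SPA beads (0.2 mg/well) and [3H]-Methylspiperone as radioligand.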

Series [4] can be described thus: Solubility test (1% DMSO addition, JP-1 fluid or JP-2 fluid). It is filed as physicochemical. Conditions: 25 °C, kinetic from dmso stock. The procedure: Test Example 11: Solubility Test The solubility of the compound of the present invention was determined under 1% DMSO addition conditions. A 10 mmol/L solution of the compound was prepared with DMSO. 2 μL of the solution of the compound of the present invention was respectively added to 198 μL of JP-1 fluid or JP-2 fluid, or 6 μL of the solution of the compound of the present invention was respectively added to 594 μL of JP-1 fluid or JP-2 fluid. The mixture was left standing for 16 hours at 25° C. (condition 1) or shaking at room temperature for 3 hours (condition 2), and the mixture was vacuum-filtered. The filtrates were diluted 10- or 100-fold with methanol/water=1/[…]) or acetonitrile/methanol/water=1/1/[…]/V), and concentrations in the filtrates were measured by the absolute calibration curve method using LC/MS or solid-phase extraction (SPE)/MS. The dilution rate or dilution solvent was changed as necessary. The composition of the JP-1 fluid was as below. Water was added to 2.0 g of sodium chloride and 7.0 mL of hydrochloric acid to reach 1000 mL. The composition of the JP-2 fluid was as below. Composition 1. 3.40 g of potassium dihydrogen phosphate and 3.55 g of anhydrous disodium hydrogen phosphate were dissolved in water to reach 1000 mL. Composition 2. 1 volume of water was added to 1 volume of the solution in which 3.40 g of potassium dihydrogen phosphate and 3.55 g of anhydrous disodium hydrogen phosphate were dissolved in water to reach 1000 mL.

[5] abbreviates: 1.2 nM [3H]-Methylspiperone, 120 min at 25° C.
[6] abbreviates: pH 1.2, simulated gastric fluid, JP-1 fluid, read-out: Solubility JP-1.
The mark [7] stands for this setting: pH 6.8, aqueous buffer, JP-2 fluid, read-out: Solubility JP-2.

Like-named read-outs stand apart in the source and are kept apart here.

Sequence of human recombinant dopamine D2 receptor (P14416 whole entry): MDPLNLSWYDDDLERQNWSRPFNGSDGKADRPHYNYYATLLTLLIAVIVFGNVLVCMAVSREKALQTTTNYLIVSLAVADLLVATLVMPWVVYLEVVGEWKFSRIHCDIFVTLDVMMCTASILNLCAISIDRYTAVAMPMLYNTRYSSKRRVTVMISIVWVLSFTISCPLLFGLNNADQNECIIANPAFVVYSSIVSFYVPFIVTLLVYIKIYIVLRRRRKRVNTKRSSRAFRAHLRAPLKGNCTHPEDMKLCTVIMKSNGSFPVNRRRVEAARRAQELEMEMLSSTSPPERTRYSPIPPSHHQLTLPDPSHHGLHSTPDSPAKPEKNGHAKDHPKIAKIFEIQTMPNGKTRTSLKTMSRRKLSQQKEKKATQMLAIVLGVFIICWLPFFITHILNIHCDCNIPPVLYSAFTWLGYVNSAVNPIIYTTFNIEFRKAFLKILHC
Sequence of human recombinant dopamine D3 receptor (P35462 whole entry): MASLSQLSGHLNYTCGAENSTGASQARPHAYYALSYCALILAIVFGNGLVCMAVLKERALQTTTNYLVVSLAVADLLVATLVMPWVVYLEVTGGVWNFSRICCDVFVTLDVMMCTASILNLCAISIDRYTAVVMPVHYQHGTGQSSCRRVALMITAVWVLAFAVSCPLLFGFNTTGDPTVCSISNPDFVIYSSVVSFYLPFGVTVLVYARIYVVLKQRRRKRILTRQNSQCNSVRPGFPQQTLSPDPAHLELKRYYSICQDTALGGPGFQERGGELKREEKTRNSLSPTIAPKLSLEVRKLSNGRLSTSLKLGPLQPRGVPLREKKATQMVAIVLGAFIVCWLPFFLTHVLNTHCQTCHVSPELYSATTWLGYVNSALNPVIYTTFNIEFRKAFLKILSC
Sequence of hERG channel (IKr) (Q12809 whole entry): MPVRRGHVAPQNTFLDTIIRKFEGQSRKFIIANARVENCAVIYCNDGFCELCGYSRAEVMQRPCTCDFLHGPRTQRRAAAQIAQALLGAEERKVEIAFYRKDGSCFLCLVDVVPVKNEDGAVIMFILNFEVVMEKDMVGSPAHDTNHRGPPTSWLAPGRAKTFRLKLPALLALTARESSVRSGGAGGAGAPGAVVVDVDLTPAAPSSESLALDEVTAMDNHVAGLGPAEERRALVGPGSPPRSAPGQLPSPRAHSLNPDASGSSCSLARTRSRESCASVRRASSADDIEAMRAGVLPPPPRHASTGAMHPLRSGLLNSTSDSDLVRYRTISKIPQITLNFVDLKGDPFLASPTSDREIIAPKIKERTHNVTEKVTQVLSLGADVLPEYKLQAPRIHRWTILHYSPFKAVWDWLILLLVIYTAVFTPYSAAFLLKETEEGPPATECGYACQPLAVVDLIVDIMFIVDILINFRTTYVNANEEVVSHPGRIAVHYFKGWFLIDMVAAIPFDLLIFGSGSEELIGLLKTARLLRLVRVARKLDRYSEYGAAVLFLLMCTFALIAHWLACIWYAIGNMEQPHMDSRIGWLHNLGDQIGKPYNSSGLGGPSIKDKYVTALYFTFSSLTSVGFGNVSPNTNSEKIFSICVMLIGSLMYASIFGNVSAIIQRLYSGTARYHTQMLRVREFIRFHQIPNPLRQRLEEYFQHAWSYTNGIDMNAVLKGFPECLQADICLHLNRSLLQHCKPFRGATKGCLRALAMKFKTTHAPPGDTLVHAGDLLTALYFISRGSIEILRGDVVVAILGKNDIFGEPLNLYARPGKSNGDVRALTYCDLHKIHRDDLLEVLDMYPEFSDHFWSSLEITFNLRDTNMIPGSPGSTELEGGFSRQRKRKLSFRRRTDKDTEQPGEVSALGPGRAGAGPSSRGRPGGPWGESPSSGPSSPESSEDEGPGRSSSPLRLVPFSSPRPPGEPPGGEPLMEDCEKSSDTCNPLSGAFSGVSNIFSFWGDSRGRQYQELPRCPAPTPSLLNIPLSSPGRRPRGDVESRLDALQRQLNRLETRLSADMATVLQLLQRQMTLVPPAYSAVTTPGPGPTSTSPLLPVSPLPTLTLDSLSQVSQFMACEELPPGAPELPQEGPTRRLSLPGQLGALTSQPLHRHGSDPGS
Sequence of human MDR1-expressing cells (P08183 whole entry): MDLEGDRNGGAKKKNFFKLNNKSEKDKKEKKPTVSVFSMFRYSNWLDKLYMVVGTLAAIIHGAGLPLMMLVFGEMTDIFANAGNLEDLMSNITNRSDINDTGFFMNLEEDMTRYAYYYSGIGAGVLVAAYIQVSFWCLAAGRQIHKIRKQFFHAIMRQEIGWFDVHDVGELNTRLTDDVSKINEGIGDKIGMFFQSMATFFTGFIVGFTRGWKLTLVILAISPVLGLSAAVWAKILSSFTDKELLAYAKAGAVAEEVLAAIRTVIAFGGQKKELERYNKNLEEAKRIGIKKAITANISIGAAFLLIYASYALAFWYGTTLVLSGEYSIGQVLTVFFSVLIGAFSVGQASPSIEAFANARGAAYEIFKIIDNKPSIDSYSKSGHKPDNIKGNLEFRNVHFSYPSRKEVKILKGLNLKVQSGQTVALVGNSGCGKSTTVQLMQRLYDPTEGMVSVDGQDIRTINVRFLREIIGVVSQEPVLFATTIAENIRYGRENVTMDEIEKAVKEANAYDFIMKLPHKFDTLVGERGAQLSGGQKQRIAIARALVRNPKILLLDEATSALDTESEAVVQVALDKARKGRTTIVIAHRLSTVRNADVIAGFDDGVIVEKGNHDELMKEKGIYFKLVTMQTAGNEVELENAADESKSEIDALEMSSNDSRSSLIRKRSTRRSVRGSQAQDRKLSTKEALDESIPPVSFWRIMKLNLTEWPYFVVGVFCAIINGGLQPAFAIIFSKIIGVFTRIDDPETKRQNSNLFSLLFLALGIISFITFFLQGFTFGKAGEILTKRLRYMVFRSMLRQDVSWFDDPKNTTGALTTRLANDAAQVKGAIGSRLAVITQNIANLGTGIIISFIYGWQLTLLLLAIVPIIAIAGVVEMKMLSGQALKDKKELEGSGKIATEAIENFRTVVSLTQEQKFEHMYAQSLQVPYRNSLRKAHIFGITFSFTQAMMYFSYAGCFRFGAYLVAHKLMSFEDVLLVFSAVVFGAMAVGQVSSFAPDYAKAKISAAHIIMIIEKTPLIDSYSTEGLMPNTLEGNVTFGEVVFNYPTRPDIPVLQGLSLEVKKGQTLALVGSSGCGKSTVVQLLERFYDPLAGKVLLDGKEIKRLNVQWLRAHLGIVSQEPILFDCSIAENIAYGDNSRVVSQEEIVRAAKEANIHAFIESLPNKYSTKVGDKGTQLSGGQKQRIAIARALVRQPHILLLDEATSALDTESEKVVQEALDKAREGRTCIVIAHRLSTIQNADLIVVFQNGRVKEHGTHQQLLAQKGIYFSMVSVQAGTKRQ

As for `Cn1ncc(CC(=O)N[C@H]2CC[C@H](CCN3CCc4sc(OCC(C)(F)F)nc4C3)CC2)n1` [Example I-005], the “P-gp ER ratio” value in series [1] was 1.5. Besides, the Ki in series [2] is 0.63 nM; in series [3] (setting [5]), 720 nM. The inhibition at 3 µM against hERG channel (IKr) was 15.3%.
For the compound `Cn1cc2c(C(=O)NN3CCC(CCN4CCc5sc(OCC(F)(F)F)nc5C4)CC3)ccc(F)c2n1` [Example I-081], the figures for the Ki in series [2] and in series [3] (setting [5]) were 0.2 nM and 640 nM, respectively. Further, on hERG channel (IKr), the inhibition at 3 µM came out at 5.59%.
Take `Cc1ncc(/C=C/C(=O)N[C@H]2CC[C@H](CCN3CCc4nc(OC5CC(F)(F)C5)sc4CC3)CC2)cn1` [Example I-082]: the values for the Ki in series [2] and in series [3] (setting [5]) were 0.086 nM and 670 nM, respectively. At hERG channel (IKr), this compound registered an inhibition at 3 µM of 11.1%.
The matching figures for `C[C@@H](Oc1nc2c(s1)CCN(CC[C@H]1CC[C@H](NC(=O)c3cccc4nn(C)cc34)CC1)CC2)C(F)(F)F` [Example I-083]: 0.16 nM, over 2200 nM and 25.1%.
The matching figures for `CCc1ncccc1C(=O)N[C@H]1CC[C@H](CCN2CCc3ccc(OC4CCC4)nc3CC2)CC1` [Example I-088]: 0.8 nM, 1300 nM and 32%.
In the case of `Cc1ncccc1C(=O)N[C@H]1CC[C@H](CCN2CCc3nc(OCCC(F)(F)F)sc3CC2)CC1` [Example I-099], the Ki amounted to 0.97 nM in series [2] and 1600 nM in series [3] (setting [5]). This compound also had an inhibition at 3 µM against hERG channel (IKr) of 29.4%.
The matching figures for `Cc1nnc(CC(=O)N[C@H]2CC[C@H](CCN3CCc4nc(OCCC(F)(F)F)sc4CC3)CC2)o1` [Example I-100]: 0.72 nM, 1500 nM and 33.9%.
As for `Cn1cc(CC(=O)N[C@H]2CC[C@H](CCN3CCc4nc(OCCC(F)(F)F)sc4CC3)CC2)cn1` [Example I-101], the values for the Ki in series [2] and in series [3] (setting [5]) were 0.3 nM and 2200 nM, respectively. This compound registered an inhibition at 3 µM on hERG channel (IKr) of 34.9%.
The matching figures for `Cc1ncc(CC(=O)N[C@H]2CC[C@H](CCN3CCc4nc(OCCC(F)(F)F)sc4CC3)CC2)o1` [Example I-102]: 0.13 nM, 670 nM and 32.2%.
The matching figures for `Cn1cc2c(C(=O)N[C@H]3CC[C@H](CCN4CCc5sc(OCC(C)(F)F)nc5C4)CC3)c(F)ccc2n1` [Example I-103]: 0.17 nM, 340 nM and 26%.
The matching figures for `Cn1cc(CC(=O)N[C@H]2CC[C@](F)(CCN3CCc4ccc(OC5CCC5)nc4CC3)CC2)cn1` [Example I-104]: 0.68 nM, over 2300 nM and 16.3%.
Take `Cc1cnc(CC(=O)N[C@H]2CC[C@](F)(CCN3CCc4ccc(OC5CCC5)nc4CC3)CC2)o1` [Example I-105]: the figures for the Ki in series [2] and in series [3] (setting [5]) were 0.96 nM and over 2300 nM, respectively. The compound further gave an inhibition at 3 µM against hERG channel (IKr) of 30.1%.
As for `Cc1nc(CC(=O)N[C@H]2CC[C@H](CCN3CCc4nc(OCC(F)(F)F)sc4CC3)CC2)n(C)n1` [Example I-107], the Ki in series [2] is 0.54 nM; in series [3] (setting [5]), 1000 nM. Further, at 3 µM the inhibition at hERG channel (IKr) was 3.75%.
The matching figures for `CC[C@@H](C)Oc1ccc2c(n1)CCN(CC[C@]1(F)CC[C@@H](NC(=O)Cc3nnc(C)o3)CC1)CC2` [Example I-108]: 0.89 nM, 1200 nM and 1.06%.
For the compound `CC[C@@H](C)Oc1ccc2c(n1)CCN(CC[C@]1(F)CC[C@@H](NC(=O)Cc3nnc(C)s3)CC1)CC2` [Example I-109], the Ki in series [2] stood at 0.26 nM; in series [3] (setting [5]), 610 nM. At 3 µM the inhibition against hERG channel (IKr) was 27%.
`CC[C@@H](C)Oc1ccc2c(n1)CCN(CC[C@H]1CC[C@H](NC(=O)Cc3cnn(C)n3)CC1)CC2` [Example I-111]: the Ki was 0.17 nM in series [2] and 1600 nM in series [3] (setting [5]). Also, at 3 µM the inhibition at hERG channel (IKr) was 14.6%.
`Cn1c(C(=O)N[C@H]2CC[C@](F)(CCN3CCc4nc(OCCC(F)(F)F)sc4CC3)CC2)cccc1=O` [Example I-113]: the Ki in series [2] is 0.87 nM; in series [3] (setting [5]), over 2200 nM. The compound also yielded an inhibition at 3 µM against hERG channel (IKr) of 6.89%.
Regarding `Cc1nc(CC(=O)N[C@H]2CC[C@](F)(CCN3CCc4nc(OCCC(F)(F)F)sc4CC3)CC2)no1` [Example I-114], the Ki in series [2] was 0.59 nM; in series [3] (setting [5]) it was over 2200 nM. Besides, at hERG channel (IKr), at 3 µM the inhibition was 29%.
Turning to `COC(CN1CCc2sc(OCC(F)(F)F)nc2C1)[C@H]1CC[C@H](NC(=O)c2cccc3nn(C)cc23)CC1` (some centres unmarked) [Example I-186], the Ki came to 0.22 nM in series [2] and 270 nM in series [3] (setting [5]). On hERG channel (IKr), this compound had an inhibition at 3 µM of 16.8%.
Take `Cn1cc2c(C(=O)NC34CCC(CCN5CCc6nc(OCC(F)(F)F)sc6CC5)(CC3)CC4)cccc2n1` [II-8]: the solubility in series [4] (setting [6]) and in series [4] (setting [7]) was over 50 µM throughout. Moreover, the Ki in series [2] is 0.084 nM; in series [3] ([3H]-Methylspiperone 1.2 nM) it was 1600 nM.
`Cc1ncc(OCC(=O)NC23CCC(CCN4CCc5nc(OCC(F)(F)F)sc5CC4)(CC2)CC3)cn1` [II-9]: the solubility in series [4] (setting [6]) and in series [4] (setting [7]) was over 50 µM each time. In addition, the values for the Ki in series [2] and in series [3] ([3H]-Methylspiperone 1.2 nM) were 0.12 nM and 960 nM, respectively.
On to `Cn1cc2c(C(=O)NC34CCC(CCN5CCc6nc(OCC(F)(F)F)sc6CC5)(CC3)OC4)cccc2n1` [II-11], for which the solubility in series [4] (setting [6]) and in series [4] (setting [7]) was over 50 µM in each case. Moreover, the Ki in series [2] is 0.23 nM; in series [3] ([3H]-Methylspiperone 1.2 nM), over 2300 nM.
Regarding `Cc1ncc(OCC(=O)NC23CCC(CCN4CCc5nc(OCC(F)(F)F)sc5CC4)(CC2)OC3)cn1` [II-12], the solubility in series [4] (setting [6]) and in series [4] (setting [7]) was over 50 µM in each case. Further, the Ki in series [2] was determined as 0.49 nM; in series [3] ([3H]-Methylspiperone 1.2 nM) it was 1500 nM.
Take `Cn1ncc(CC(=O)N[C@H]2CC[C@](F)(CCN3CCc4nc(OCC(F)(F)F)sc4CC3)CC2)n1` [I′-37]: the Ki in series [2] is 0.18 nM; in series [3] ([3H]-Methylspiperone 1.2 nM), 1600 nM. At 3 µM the inhibition on hERG channel (IKr) was 19.6%.
The matching figures for `Cn1ncc(CC(=O)N[C@H]2CC[C@H](CCN3CCc4nc(OCC(C)(F)F)sc4CC3)CC2)n1` [I′-38]: 0.043 nM, 1000 nM and 20.6%.
In the same order, the values of `Cn1ncc(CC(=O)N[C@H]2CC[C@](F)(CCN3CCc4nc(OCC(F)F)sc4CC3)CC2)n1` [I′-41] are 0.49 nM, 1900 nM and 24%.

In general, inhibition refers to the change of the read-out against control, counted positive when it falls. One may read the solubility as the concentration that dissolves in the medium under given conditions.
